Results taken from patent publication US9365512B2, “Isoindoline derivatives, pharmaceutical compositions containing them, and their use in therapy” (AbbVie Deutschland GmbH & Co. KG, priority 2012, dated 2016).
pKi: −log10 of the molar value.

Tested on: not listed separately
Experiment: Metabolic stability in human liver microsomes (microsomal clearance)
Type: in vitro ADME
Details: 0.5 μM test substance, 0.25 mg microsomal protein/ml, pH 7.4, 37° C., NADPH
Description: The metabolic stability of a compound can be measured for example by incubating a solution of this compound with liver microsomes from particular species (for example rat, dog or human) and determining the half-life of the compound under these conditions (RS Obach, Curr Opin Drug Discov Devel. 2001, 4, 36-44). It is possible in this connection to conclude from an observed longer half-life that the metabolic stability of the compound is improved. The stability in the presence of human liver microsomes is of particular interest because it makes it possible to predict the metabolic degradation of the compound in the human liver. Compounds with increased metabolic stability (measured in the liver microsome test) are therefore probably also degraded more slowly in the liver. The slower metabolic degradation in the liver may lead to higher and/or longer-lasting concentrations (active levels) of the compound in the body, so that the elimination half-life of the compounds of the invention is increased. Increased and/or longer-lasting active levels may lead to a better activity of the compound in therapeutic treatment. […]
Metabolic stability was determined as follows:
0.5 μM test substance was preincubated together with human liver microsomes (0.25 mg of microsomal protein/ml) in 0.05 M potassium phosphate buffer of pH 7.4 in microtiter plates at 37° C. for 5 min. […] The samples were frozen until analyzed. The remaining concentration of undegraded test substance was determined by LC MSMS. The half-life (T½) was determined from the gradient of the signal of test substance/unit time plot, allowing to calculate the half-life of the test substance, assuming first order kinetics, from the decrease in the concentration of the compound with time. The microsomal clearance (mCl) was calculated from mCl=ln 2/T½/(content of microsomal protein in mg/ml)×1000 (modified from references: Di, The Society for Biomolecular Screening, 2003, 453-462; Obach, DMD, 1999 vol 27. N 11, 1350-1359).

| SMILES | human mCl [µL/min/mg] |
| --- | --- |
| Cn1cnc(S(=O)(=O)NCc2ccc3c(c2)C(Cc2ccccc2)NC3)c1 (centres unmarked) [Example 4, N-[(3-Benzylisoindolin-5-yl)methyl]-1-methyl-1H-imidazole-4-sulfonamide] | <1 |

Target: T1, human GlyT1c transporter (Homo sapiens, UniProt P48067)
T1 construct: expressed in transfected cells; host or cells: CHO cells (recombinant; membranes)
T1 sequence (P48067 1-706): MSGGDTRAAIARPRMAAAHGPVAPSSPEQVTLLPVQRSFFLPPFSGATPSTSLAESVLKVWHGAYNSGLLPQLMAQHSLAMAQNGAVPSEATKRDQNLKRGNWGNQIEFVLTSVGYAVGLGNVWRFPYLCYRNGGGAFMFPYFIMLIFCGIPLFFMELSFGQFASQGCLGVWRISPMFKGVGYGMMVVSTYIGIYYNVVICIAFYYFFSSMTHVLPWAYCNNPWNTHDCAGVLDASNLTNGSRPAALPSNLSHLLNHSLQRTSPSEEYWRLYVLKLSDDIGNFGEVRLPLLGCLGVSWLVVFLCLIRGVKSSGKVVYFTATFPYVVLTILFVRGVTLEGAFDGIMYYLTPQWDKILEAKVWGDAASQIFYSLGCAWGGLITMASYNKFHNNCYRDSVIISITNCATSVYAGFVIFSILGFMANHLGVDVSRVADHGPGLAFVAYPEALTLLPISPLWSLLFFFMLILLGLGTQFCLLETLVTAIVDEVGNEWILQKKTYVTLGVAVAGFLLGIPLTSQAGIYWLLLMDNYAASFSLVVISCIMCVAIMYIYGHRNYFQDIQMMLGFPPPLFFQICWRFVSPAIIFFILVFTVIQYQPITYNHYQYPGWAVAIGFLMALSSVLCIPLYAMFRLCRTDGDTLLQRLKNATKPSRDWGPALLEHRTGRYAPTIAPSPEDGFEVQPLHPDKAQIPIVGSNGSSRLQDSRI
Experiment: Radioligand binding assay using recombinant CHO cell membranes expressing human GlyT1
Details: read-out: radioligand binding Kiapp
Description: 2. Radioligand Binding Assays Using Recombinant CHO Cell Membranes Expressing Human GlyT1:
Radioligand binding to human GlyT1c transporter-expressing membranes was determined as described in Mezler et al., Molecular Pharmacology 74:1705-1715, 2008.

| SMILES | pKi |
| --- | --- |
| Cn1cnc(S(=O)(=O)NCCOc2ccc3c(c2)C(Cc2ccccc2)NC3=O)c1 (centres unmarked) [Example 1, N-[2-(3-benzyl-1-oxo-isoindolin-5-yl)oxyethyl]-1-methyl-1H-imidazole-4-sulfonamide] | > 6.00 |
| Cn1cnc(S(=O)(=O)NCc2ccc3c(c2)C(Cc2ccccc2)NC3=O)c1 (centres unmarked) [Example 2, N-[(3-Benzyl-1-oxo-isoindolin-5-yl)methyl]-1-methyl-1H-imidazole-4-sulfonamide] | > 6.00 |
| CC(C)(C)OC(=O)NCCOc1ccc2c(c1)C(Cc1ccccc1)NC2=O (centres unmarked) [Example 3, [2-(3-Benzyl-1-oxo-2,3-dihydro-1H-isoindol-5-yloxy)-ethyl]-carbamic acid tert-butyl ester] | < 5.00 |
| Cn1cnc(S(=O)(=O)NCc2ccc3c(c2)C(Cc2ccccc2)NC3)c1 (centres unmarked) [Example 4, N-[(3-Benzylisoindolin-5-yl)methyl]-1-methyl-1H-imidazole-4-sulfonamide] | > 6.00 |
| Cn1cc(S(=O)(=O)NCCOc2ccc3c(c2)C(Cc2ccccc2)NC3=O)cn1 (centres unmarked) [Example 6, N-[2-(3-Benzyl-1-oxo-isoindolin-5-yl)oxyethyl]-1-methyl-1H-pyrazole-4-sulfonamide] | > 5.00 |
| Cn1cnc(S(=O)(=O)NCCOc2ccc3c(c2)C(C)(Cc2ccccc2)NC3=O)c1 (centres unmarked) [Example 8, N-[2-(3-Benzyl-3-methyl-1-oxo-isoindolin-5-yl)oxyethyl]-1-methyl-1H-imidazole-4-sulfonamide] | > 5.00 |
| Cn1cc(S(=O)(=O)NCCOc2ccc3c(c2)C(C)(Cc2ccccc2)NC3=O)cn1 (centres unmarked) [Example 9, N-[2-(3-Benzyl-3-methyl-1-oxo-isoindolin-5-yl)oxyethyl]-1-methyl-1H-pyrazole-4-sulfonamide] | > 5.00 |
| Cn1cc(S(=O)(=O)NCCOc2ccc3c(c2)C(C)(Cc2ccccc2)NC3)cn1 (centres unmarked) [Example 10, N-[2-(3-Benzyl-3-methyl-isoindolin-5-yl)oxyethyl]-1-methyl-1H-pyrazole-4-sulfonamide] | > 7.00 |
| Cn1cnc(S(=O)(=O)NCCOc2ccc3c(c2)C(C)(Cc2ccccc2)NC3)c1 (centres unmarked) [Example 11, N-[2-(3-Benzyl-3-methyl-isoindolin-5-yl)oxyethyl]-1-methyl-imidazole-4-sulfonamide] | > 7.00 |
| Cn1cc(S(=O)(=O)NCCOc2ccc3c(c2)C(Cc2ccccc2)N(C(=O)C(F)(F)F)C3)cn1 (centres unmarked) [Example 12] | > 6.00 |
| CN1Cc2ccc(OCCNS(=O)(=O)c3cnn(C)c3)cc2C1Cc1ccccc1 (centres unmarked) [Example 13, N-[2-(3-Benzyl-2-methyl-isoindolin-5-yl)oxyethyl]-1-methyl-1H-pyrazole-4-sulfonamide; 2,2,2-trifluoroacetic acid] | > 8.00 |
| CN1Cc2ccc(OCCNS(=O)(=O)c3cn(C)cn3)cc2C1Cc1ccccc1 (centres unmarked) [Example 14, N-[2-(3-Benzyl-2-methyl-isoindolin-5-yl)oxyethyl]-1-methyl-1H-imidazole-4-sulfonamide; 2,2,2-trifluoroacetic acid] | > 7.00 |
| Cn1cc(S(=O)(=O)NCCOc2ccc3c(c2)C(Cc2ccccc2)N(CC(F)(F)F)C3)cn1 (centres unmarked) [Example 15, N-[2-[3-Benzyl-2-(2,2,2-trifluoroethyl)isoindolin-5-yl]oxyethyl]-1-methyl-1H-pyrazole-4-sulfonamide; 2,2,2-trifluoroacetic acid] | > 6.00 |
| Cn1cc(S(=O)(=O)NCCOc2ccc3c(c2)C(Cc2ccccc2)N(C2COC2)C3)cn1 (centres unmarked) [Example 16, N-[2-[3-Benzyl-2-(oxetan-3-yl)isoindolin-5-yl]oxyethyl]-1-methyl-1H-pyrazole-4-sulfonamide; 2,2,2-trifluoroacetic acid] | > 7.00 |
| CC1(Cc2ccccc2)NC(=O)c2ccc(OCCNS(=O)(=O)CC3CC3)cc21 (centres unmarked) [Example 17, N-[2-(3-Benzyl-3-methyl-1-oxo-isoindolin-5-yl)oxyethyl]-1-cyclopropyl-methanesulfonamide] | > 5.00 |
| CC1(Cc2ccccc2)NCc2ccc(OCCNS(=O)(=O)CC3CC3)cc21 (centres unmarked) [Example 18, N-[2-(3-Benzyl-3-methyl-isoindolin-5-yl)oxyethyl]-1-cyclopropyl-methanesulfonamide; 2,2,2-trifluoroacetic acid] | > 6.00 |
| Cn1cnc(S(=O)(=O)NCCOc2cc3c(cc2F)C(=O)NC3Cc2ccccc2)c1 (centres unmarked) [Example 19, N-[2-(3-Benzyl-6-fluoro-1-oxo-isoindolin-5-yl)oxyethyl]-1-methyl-1H-imidazole-4-sulfonamide] | > 6.00 |
| CN1Cc2cc(F)c(OCCNS(=O)(=O)CC3CC3)cc2C1Cc1ccccc1 (centres unmarked) [Example 20, N-(2-(3-Benzyl-6-fluoro-2-methylisoindolin-5-yloxy)ethyl)-1-cyclopropyl-methanesulfonamide] | > 6.00 |
| Cn1cnc(S(=O)(=O)NCCOc2cc3c(cc2F)CNC3Cc2ccccc2)c1 (centres unmarked) [Example 21, 1-Methyl-1H-imidazole-4-sulfonic acid [2-(3-benzyl-6-fluoro-2,3-dihydro-1H-isoindol-5-yloxy)-ethyl]-amide] | > 7.00 |
| O=C1NC(Cc2ccccc2)c2cc(OCCNS(=O)(=O)CC3CC3)c(F)cc21 (centres unmarked) [Example 22, N-[2-(3-Benzyl-6-fluoro-1-oxo-2,3-dihydro-1H-isoindol-5-yloxy)-ethyl]-C-cyclopropyl-methanesulfonamide] | > 5.00 |
| O=S(=O)(CC1CC1)NCCOc1cc2c(cc1F)CNC2Cc1ccccc1 (centres unmarked) [Example 23, N-[2-(3-Benzyl-6-fluoro-2,3-dihydro-1H-isoindol-5-yloxy)-ethyl]-C-cyclopropyl-methanesulfonamide] | > 6.00 |
| CCS(=O)(=O)NCCOc1cc2c(cc1F)C(=O)NC2Cc1ccccc1 (centres unmarked) [Example 24, Ethanesulfonic acid [2-(3-benzyl-6-fluoro-1-oxo-2,3-dihydro-1H-isoindol-5-yloxy)-ethyl]-amide] | > 5.00 |
| CCS(=O)(=O)NCCOc1cc2c(cc1F)CNC2Cc1ccccc1 (centres unmarked) [Example 25, Ethanesulfonic acid [2-(3-benzyl-6-fluoro-2,3-dihydro-1H-isoindol-5-yloxy)-ethyl]-amide] | > 5.00 |
| O=C1NC(Cc2ccccc2)c2cc(CNS(=O)(=O)CC3CC3)ccc21 (centres unmarked) [Example 26, N-(3-Benzyl-1-oxo-2,3-dihydro-1H-isoindol-5-ylmethyl)-C-cyclopropyl-methanesulfonamide] | > 5.00 |
| CCCS(=O)(=O)NCc1ccc2c(c1)C(Cc1ccccc1)NC2=O (centres unmarked) [Example 28, Propane-1-sulfonic acid (3-benzyl-1-oxo-2,3-dihydro-1H-isoindol-5-ylmethyl)-amide] | > 5.00 |
| O=S(=O)(CC1CC1)NCc1ccc2c(c1)C(Cc1ccccc1)NC2 (centres unmarked) [Example 29, N-(3-Benzyl-2,3-dihydro-1H-isoindol-5-ylmethyl)-C-cyclopropyl-methanesulfonamide] | > 5.00 |
| CCS(=O)(=O)NCc1ccc2c(c1)C(Cc1ccccc1)NC2 (centres unmarked) [Example 30, Ethanesulfonic acid (3-benzyl-2,3-dihydro-1H-isoindol-5-ylmethyl)-amide] | > 4.00 |
| CCCS(=O)(=O)NCc1ccc2c(c1)C(Cc1ccccc1)NC2 (centres unmarked) [Example 31, Propane-1-sulfonic acid (3-benzyl-2,3-dihydro-1H-isoindol-5-ylmethyl)-amide] | > 5.00 |
